Laboratory results reported in the supplement of paper PMC11962398.

Key:
BI-2493 [1] = compound: T1, C[C@H]1CNCCN1c1nccc(-c2noc3c2CCC[C@@]32CCCc3sc(N)c(C#N)c32)n1 [BI-2493]; conditions: 5 days
Procedure: (§1)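 PRISM pooled barcoded cancer cell line viability screen (Broad Institute) with BI-2493 at 8 doses in threefold dilutions from 0.00457 to 10 µmol/L, 5-day treatment; curves fitted per cell line. IC50 is undefined (placeholder) for resistant lines. AUC is capped at 1, and sensitivity is reported as 1 − AUC.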

BI-2493 [2] = compound: T1, BI-2493; experiment: 1 - AUC of viability dose-response curve (sensitivity) (fraction); higher = more sensitive; conditions: 5 days
Procedure: as §1

Row | Test System | IC50 of cell viability (BI-2493 [1]) [µM] | 1 - AUC of viability dose-response curve (BI-2493 [2])
1 | YD8_UPPER_AERODIGESTIVE_TRACT | > 10 | 0.0906
2 | YD10B_UPPER_AERODIGESTIVE_TRACT | 5.08 | 0.0787
3 | YD15_SALIVARY_GLAND | 6.99 | 0.0555
4 | YD38_UPPER_AERODIGESTIVE_TRACT | 6.6 | 0.088
5 | YH13_CENTRAL_NERVOUS_SYSTEM | > 10 | 0.0914
6 | YKG1_CENTRAL_NERVOUS_SYSTEM | 9.17 | 0.0786
7 | YSCCC_BILIARY_TRACT | 5.65 | 0.104
8 | ZR751_BREAST | 4.57 | 0.1
